Among the data in ChEMBL document CHEMBL1150206, “Verrucoside, a new cytotoxic pregnane glycoside from a gorgonian Eunicella verrucosa” (J Nat Prod, 1991) are IC50 values, retold here.

In brackets after ≈: the same amount, converted by molar mass.

Format in all cases: functional, cell-based
For one experiment, the system named is P388. Briefly: Cytotoxicity against mouse P388 cells.
The next experiment concerns A549. The experiment is described as follows: Cytotoxicity against human A549 cells.
The test system of the next experiment is HT-29. Briefly: Cytotoxicity against human HT-29 cells.

As a reminder, the IC50 is the concentration that inhibits the measured activity by half. A high value points to a need for much substance. For `C=C[C@H]1CC[C@H]2[C@@H]3CC[C@@H]4[C@@H](O[C@@H]5O[C@@H](C)[C@@H](O)[C@@H](OC)[C@@H]5OC(C)=O)[C@@H](O)CC[C@]4(C)[C@H]3CC[C@]12C` [VERRUCOSIDE], the IC50 in the experiment on P388 amounted to 5.9 µg/mL (≈ 11.3 µM); with A549 it was 7.2 µg/mL (≈ 13.8 µM); with HT-29 it was 6.3 µg/mL (≈ 12.1 µM).
